Measured values: patent publication US12534704B2, “Organ extracellular matrix-derived scaffold for culture and transplantation of organoid and method of preparing the same” (CELLARTGEN INC., priority 2020, dated 2026)

Legend:
Assay type in all cases: cell-based
[1] = test system: human cholangiocyte-derived liver organoids (hCLOs); assay: Liver fibrosis model with hCLO; settings: hCLO in LEM, 3 days
Description: Meanwhile, for disease modeling using human cholangiocyte-derived liver organoids (hCLOs) cultured in the LEM, TGF-β was tested at each concentration and the organoids were treated with the most appropriate concentration of TGF-β (80 ng/ml). Then, the possibility of inducing liver fibrosis was checked.
To verify a liver fibrosis model, SMA (Smooth Muscle Actin) was used for staining to determine the accumulated extracellular matrix (ECM) around the organoids. Through this experiment, it was verified that a human liver fibrosis model can be constructed using a liver organoid cultured in the LEM scaffold (FIG. 79B).

[2] = test system: mouse cholangiocyte-derived liver organoids (CLOs); assay: Liver fibrosis model with mouse CLO
Description: For disease modeling using an LEM-based liver organoid, TGF-beta was screened at each concentration and the possibility of inducing liver fibrosis was checked. A model was induced using mouse cholangiocyte-derived liver organoids (CLOs) cultured for 7 days. To construct a liver fibrosis model, the organoids were treated with TGF-β at each concentration for 48 hours and observed.

human lung organoid = assay: Lung fibrosis model with human lung organoid
Description: Specifically, human lung organoids cultured in respective scaffolds were treated with TGF-β for 3 days and then analyzed.

mouse lung organoid = assay: Lung fibrosis model with mouse lung organoid
Description: Specifically, lung organoids were treated for 3 days at respective concentrations on day 4 of culture and analyzed on day 7. A lung organoid that was not treated with TGF-β (NT, No treatment) was used as a control group.

TGF-β
liver organoid morphology and growth [1]: deformed in morphology and did not grow well | expression of liver fibrosis markers ([2]; 4 ng/ml TGF-β, qPCR): highest | liver organoid morphology and growth ([2]; TGF-β each concentration, 48 hours): changed in morphology and did not grow well | cholangiocyte marker expression ([2]; organoids cultured in LEM): significantly decreased | fibrosis marker expression ([2]; organoids cultured in LEM): greatly increased | SMA, COL1 and VIM expression (immunostaining) (human lung organoid; 3 days after treatment): increased | ACTA2, COL1A2 and TNF-α expression (human lung organoid; 3 days, quantitative PCR): significantly increased | SMA and Col1 expression (immunostaining) (mouse lung organoid): increase as the TGF-β treatment concentration increases | Col1a2 expression (mouse lung organoid; 40 ng/ml): increased statistically significantly | lung organoid shape and growth (mouse lung organoid; TGF-β each concentration, 3 days): changed in shape and did not grow well
